Data published in article PMC11868595, “Safety, pharmacokinetics and efficacy of HA121-28 in patients with advanced solid tumors and RET fusion-positive non-small-cell lung cancer: a multicenter, open-label, single-arm phase 1/2 trial” (Signal Transduction and Targeted Therapy, 2025).

System: patients with advanced solid tumors
Assay: Phase 1 trial: adverse events (CTCAE), DLT and MTD
Assay type: in vivo, human
Experimental: The phase 1 trial was a two-part, multicenter, open-label, nonrandomized study to evaluate the safety and preliminary efficacy of HA121-28.
Safety, tolerability, and PK of HA121-28 was assessed in dose-escalation part. The single-patient accelerated titration was carried out at 25 mg and 50 mg; then, the dose escalation proceeded according to a “3 + 3” design in dose range of 100 to 800 mg. Escalation to a higher dose level was considered by the satisfactory review of safety results from the previous lower dose during the first cycle.
The dose-expansion part aims to further access the safety and efficacy of HA121-28 at the selected doses based on data from the dose-escalation part. The RP2D was determined by investigators in view of a thorough review of safety, PK, and efficacy results.
In phase 1 trial, during the dose-escalation part, patients first administered HA121-28 in a single ascending dose under the fasted state, then followed up for seven days. Then, patients received ascending doses of HA121-28 (q.d.) on a 21-day on and 7-day off treatment scheme for a 28-day cycle. For patients deemed beneficial from the treatment by investigators, treatment could remain until disease progression, or they discontinued from the study. In the dose-expansion part of phase 1, as well as phase 2, patients received HA121-28 (q.d.) at the selected doses on a 21-day on and 7-day off treatment scheme until disease progression, or they discontinued from the study.
Treatment-emergent adverse events (TEAEs) were documented during the entire study period. The predefined adverse event of special interest (AESI) was ≥ grade 3 prolonged QT interval. Tumor imaging was performed using contrast-enhanced computed tomography or magnetic resonance imaging at screening, Day 28 of the first cycle, then approximately every eight weeks till the end of the study for phase 1; in phase 2, imaging was scheduled at screening, and every eight weeks during the first 40 weeks, followed by every 12 weeks for the rest of the study period. RECIST 1.1 was used by the independent review committee or investigators for assessment of tumor response. After the original assessment, a repeated assessment was required around four weeks later to confirm a complete or partial response.
The primary endpoints of phase 1 were to investigate the MTD, dose-limiting toxicities, and the incidence and severity of TEAEs. Each TEAE was graded according to the Common Terminology Criteria for Adverse Events (CTCAE, version 5.0) and coded by Medical Dictionary for Regulatory Activities (MedDRA, version 21.0). The secondary endpoints included calculating PK parameters, assessing the ORR and DCR at the recommended dose by investigators as per RECIST 1.1. The exploratory endpoint was PFS.
If grade 2 or higher toxicity related to the study drug occurs in Groups 1 and 2 (as determined by the investigator), dose escalation will proceed using a 3+3 design starting from that dose level. If no DLT is observed at the 800 mg/d dose level after dose escalation, a meeting of investigators will be convened to decide whether to proceed with further dose escalation based on the available PK data, safety, and tolerability information.
5. Definition of DLT and MTD
The following events related to the study drug (including those that are definitely related, highly likely to be related, and possibly related):
(1) Grade 4 hematologic toxicity or grade 3 neutropenia accompanied by a fever of 38.5℃ or higher, or grade 3 thrombocytopenia accompanied by severe bleeding.
(2) Patients who discontinued the medication for more than 7 days due to unresolved toxicity reactions or who discontinued the medication more than twice due to toxicity […]
(3) In the context of supportive treatment, diarrhea of grade 2 lasting more than 7 days, or grade 3 diarrhea lasting more than 3 days.

[1] = Phase 1 Study, patient 5 with Grade 3 QTc prolongation
[2] = Phase 1 Study, patient 9 with Grade 3 QTc prolongation

COc1cc2c(Nc3ccc(Br)cc3F)ncnc2cc1OCCCCN(C)C.Cl.Cl [HA121-28, N-(4-bromo-2-fluorophenyl)-7-(4-(dimethylamino)butoxy)-6-methoxy quinazolin-4-amine dihydrochloride]
4: Grade of cardiac TEAE: Ventricular arrhythmia (Phase 1 Study, patient 7 with Grade 3 QTc prolongation)
8.1%: grade ≥ 3 TEAE diarrhea (phase 1)
50.0%: TEAE prolonged QT interval (phase 1, all grades)
78.8%: TEAE diarrhea (phase 1, all grades)
57.5%: TEAE rash (phase 1, all grades)
98.1%: patients with at least one TRAE (phase 1)
2: Grade of cardiac TEAE: Cardiopalmus (Phase 1 Study, patient 1 with Grade 3 QTc prolongation) | Grade of cardiac TEAE: Abnormal Q wave of III and aVF leads [2]
450 mg: recommended phase 2 dose (RP2D) (q.d., 21-day on/7-day off)
48.8%: patients with grade ≥ 3 TEAEs (phase 1)
10.6%: AESI leading to dose interruption (phase 1)
0.6%: AESI leading to permanent discontinuation (phase 1)
600 mg: maximum tolerated dose (MTD) (once daily, phase 1 dose escalation)
40.0%: patients with grade ≥3 TRAEs (phase 1)
1: Grade of cardiac TEAE: Bradycardia (Phase 1 Study, patient 2 with Grade 3 QTc prolongation) | Grade of cardiac TEAE: nodal tachycardia (Phase 1 Study, patient 3 with Grade 3 QTc prolongation) | Grade of cardiac TEAE: T wave anomaly (Phase 1 Study, patient 4 with Grade 3 QTc prolongation) | Grade of cardiac TEAE: Complete right bundle branch block [1] | Grade of cardiac TEAE: Incomplete right bundle branch block [1] | Grade of cardiac TEAE: sinus bradycardia [1] | Grade of cardiac TEAE: T wave anomaly (Phase 1 Study, patient 6 with Grade 3 QTc prolongation) | Grade of cardiac TEAE: ST-T wave changes (Phase 1 Study, patient 8 with Grade 3 QTc prolongation) | Grade of cardiac TEAE: Atrial premature beats [2] | Grade of cardiac TEAE: ST-T wave changes [2] | Grade of cardiac TEAE: T wave anomaly [2]
15.0%: grade ≥ 3 TEAE prolonged QT interval (AESI) (phase 1)
14.4%: patients with treatment-related SAEs (phase 1)
5.6%: grade ≥ 3 TEAE rash (phase 1)
1 (33.3) No. (%): Serious TEAE: Weight loss (Phase 1, 800 mg (N=3)) | Serious TRAE: Any (Phase 1, 800 mg (N=3)) | Serious TRAE: Weight loss (Phase 1, 800 mg (N=3))
2.5%: treatment-related SAE rash (phase 1)
0 No. (%): Serious TEAE: Headache (Phase 1, 800 mg (N=3)) | Serious TEAE: Hemoptysis (Phase 1, 800 mg (N=3)) | Serious TEAE: Hydronephrosis (Phase 1, 800 mg (N=3)) | Serious TEAE: Hypertension (Phase 1, 800 mg (N=3)) | Serious TEAE: Hypoalbuminemia (Phase 1, 800 mg (N=3)) | Serious TEAE: Intestinal obstruction (Phase 1, 800 mg (N=3)) | Serious TEAE: Intra-abdominal fluid collection (Phase 1, 800 mg (N=3)) | Serious TEAE: Intracranial tumor hemorrhage (Phase 1, 800 mg (N=3)) | Serious TEAE: Liver injury (Phase 1, 800 mg (N=3)) | Serious TEAE: Lung adenocarcinoma (Phase 1, 800 mg (N=3)) | Serious TEAE: Malignant neoplasm progression (Phase 1, 800 mg (N=3)) | Serious TEAE: Multiple organ dysfunction syndrome (Phase 1, 800 mg (N=3)) | Serious TEAE: Nausea (Phase 1, 800 mg (N=3)) | Serious TEAE: Nephrolithiasis (Phase 1, 800 mg (N=3)) | Serious TEAE: Platelet counts decreased (Phase 1, 800 mg (N=3)) | Serious TEAE: Pleural effusion (Phase 1, 800 mg (N=3)) | Serious TEAE: Pneumonia (Phase 1, 800 mg (N=3)) | Serious TEAE: Pneumonitis (Phase 1, 800 mg (N=3)) | Serious TEAE: Prolonged QT interval (Phase 1, 800 mg (N=3)) | Serious TEAE: Pulmonary embolism (Phase 1, 800 mg (N=3)) | Serious TEAE: Pyrexia (Phase 1, 800 mg (N=3)) | Serious TEAE: Rash (Phase 1, 800 mg (N=3)) | Serious TEAE: Rectal hemorrhage (Phase 1, 800 mg (N=3)) | Serious TEAE: Respiratory failure (Phase 1, 800 mg (N=3)) | Serious TEAE: Seizure (Phase 1, 800 mg (N=3)) | Serious TEAE: Septic shock (Phase 1, 800 mg (N=3)) | Serious TEAE: Sudden cardiac arrest (Phase 1, 800 mg (N=3)) | Serious TEAE: Sudden death (Phase 1, 800 mg (N=3)) | Serious TEAE: Upper respiratory tract infection (Phase 1, 800 mg (N=3)) | Serious TEAE: Ventricular tachycardia (Phase 1, 800 mg (N=3)) | Serious TEAE: Vomiting (Phase 1, 800 mg (N=3)) | Serious TRAE: ALT increased (Phase 1, 800 mg (N=3)) | Serious TRAE: AST increased (Phase 1, 800 mg (N=3)) | Serious TRAE: Abdominal Pain (Phase 1, 800 mg (N=3)) | Serious TRAE: Abdominal distension (Phase 1, 800 mg (N=3)) | Serious TRAE: Acute cholecystitis (Phase 1, 800 mg (N=3)) | Serious TRAE: Acute pancreatitis (Phase 1, 800 mg (N=3)) | Serious TRAE: Anal abscess (Phase 1, 800 mg (N=3)) | Serious TRAE: Aortic intramural hematoma (Phase 1, 800 mg (N=3)) | Serious TRAE: Arrhythmia (Phase 1, 800 mg (N=3)) | Serious TRAE: Blood bilirubin increased (Phase 1, 800 mg (N=3)) | Serious TRAE: Blood creatinine increased (Phase 1, 800 mg (N=3)) | Serious TRAE: COVID-19 (Phase 1, 800 mg (N=3)) | Serious TRAE: Cardiac tamponade (Phase 1, 800 mg (N=3)) | Serious TRAE: Coronary artery atherosclerosis (Phase 1, 800 mg (N=3)) | Serious TRAE: Death (Phase 1, 800 mg (N=3)) | Serious TRAE: Diarrhea (Phase 1, 800 mg (N=3)) | Serious TRAE: Drug eruption (Phase 1, 800 mg (N=3)) | Serious TRAE: Dyspnea (Phase 1, 800 mg (N=3)) | Serious TRAE: Embolism (Phase 1, 800 mg (N=3)) | Serious TRAE: Erythema multiforme (Phase 1, 800 mg (N=3)) | Serious TRAE: Headache (Phase 1, 800 mg (N=3)) | Serious TRAE: Hemoptysis (Phase 1, 800 mg (N=3)) | Serious TRAE: Hydronephrosis (Phase 1, 800 mg (N=3)) | Serious TRAE: Hypertension (Phase 1, 800 mg (N=3)) | Serious TRAE: Hypoalbuminemia (Phase 1, 800 mg (N=3)) | Serious TRAE: Intestinal obstruction (Phase 1, 800 mg (N=3)) | Serious TRAE: Intra-abdominal fluid collection (Phase 1, 800 mg (N=3)) | Serious TRAE: Intracranial tumor hemorrhage (Phase 1, 800 mg (N=3)) | Serious TRAE: Liver injury (Phase 1, 800 mg (N=3)) | Serious TRAE: Lung adenocarcinoma (Phase 1, 800 mg (N=3)) | Serious TRAE: Malignant neoplasm progression (Phase 1, 800 mg (N=3)) | Serious TRAE: Multiple organ dysfunction syndrome (Phase 1, 800 mg (N=3)) | Serious TRAE: Nausea (Phase 1, 800 mg (N=3)) | Serious TRAE: Nephrolithiasis (Phase 1, 800 mg (N=3)) | Serious TRAE: Platelet counts decreased (Phase 1, 800 mg (N=3)) | Serious TRAE: Pleural effusion (Phase 1, 800 mg (N=3)) | Serious TRAE: Pneumonia (Phase 1, 800 mg (N=3)) | Serious TRAE: Pneumonitis (Phase 1, 800 mg (N=3)) | Serious TRAE: Prolonged QT interval (Phase 1, 800 mg (N=3)) | Serious TRAE: Pulmonary embolism (Phase 1, 800 mg (N=3)) | Serious TRAE: Pyrexia (Phase 1, 800 mg (N=3)) | Serious TRAE: Rash (Phase 1, 800 mg (N=3)) | Serious TRAE: Rectal hemorrhage (Phase 1, 800 mg (N=3)) | Serious TRAE: Respiratory failure (Phase 1, 800 mg (N=3)) | Serious TRAE: Seizure (Phase 1, 800 mg (N=3)) | Serious TRAE: Septic shock (Phase 1, 800 mg (N=3)) | Serious TRAE: Sudden cardiac arrest (Phase 1, 800 mg (N=3)) | Serious TRAE: Sudden death (Phase 1, 800 mg (N=3)) | Serious TRAE: Upper respiratory tract infection (Phase 1, 800 mg (N=3)) | Serious TRAE: Ventricular tachycardia (Phase 1, 800 mg (N=3)) | Serious TRAE: Vomiting (Phase 1, 800 mg (N=3))
99.4%: patients with at least one TEAE (phase 1)
